Test results taken from patent publication US7612238B2, “Amino-propanol derivatives” (Novartis AG, priority 2002, dated 2009).
Where a name gives a salt, the structure may show the parent alone.

Columns and labels:
[1] = test system: peripheral blood lymphocytes; experiment: In vivo: blood lymphocyte depletion; settings: rats, p.o.
Method: B. In Vivo: Blood Lymphocyte Depletion
A compound of formula I or the vehicle is administered orally by gavage to rats. Tall blood for hematological monitoring is obtained on day −1 to give the baseline individual values, and at 2, 6, 24, 48 and 72 hours after application. In this assay, the compounds of formula I deplete peripheral blood lymphocytes when administered at a dose of 0.03 to 3 mg/kg.

[2] = target: T1, human S1P receptors (S1P2) (Homo sapiens, UniProt O95136); experiment: S1P receptor profiling, GTP[γ-35S] binding SPA, S1P2; type: biochemical; settings: membranes of transfected CHO or RH7777 cells
T1 construct: expressed in transfected cells
Method: (§1) The compounds of formula I have binding affinity to individual human S1P receptors as determined in following assays:
(§2) Sphingosine-1-Phosphate (S1P) Receptor Profiling
(§3) Agonist activities of compounds are tested on the human S1P receptors (S1P1), (S1P3), (S1P2), (S1P4) and (S1P5). […] The assay technology used is SPA (scintillation proximity based assay). Briefly, DMSO dissolved compounds are serially diluted and added to SPA-bead (Amersham-Pharmacia) immobilised S1P receptor expressing membrane protein (10-20 μg/well) in the presence of 50 mM Hepes, 100 mM NaCl, 10 mM MgCl2, 10 μM GDP, 0.1% fat free BSA and 0.2 nM GTP [γ-^35S] (1200 Ci/mmol). After incubation in 96 well microtiterplates at RT for 120 min, unbound GTP [γ-^35S] is separated by a centrifugation step. Luminescence of SPA beads triggered by membrane bound GTP [γ-^35S] is quantified with a TOPcount plate reader (Packard). EC50s are calculated using standard curve fitting software.

[3] = target: T2, human S1P receptors (S1P5) (Homo sapiens, UniProt Q9H228); experiment: S1P receptor profiling, GTP[γ-35S] binding SPA, S1P5; type: biochemical; set-up: key to S1P5 mode of action (Agon = agonist): Agon = agonist; settings: for EC50: GTP[γ-35S] binding, membranes of transfected CHO or RH7777 cells; for S1P5 mode of action (Agon = agonist): column beside S1P5 EC50
T2 construct: expressed in transfected cells
Method: as §1, §2, §3

[4] = target: T3, human S1P receptors (S1P1) (Homo sapiens, UniProt P21453); experiment: S1P receptor profiling, GTP[γ-35S] binding SPA, S1P1; type: biochemical; set-up: key to S1P1 mode of action (Agon = agonist): Agon = agonist; settings: for EC50: GTP[γ-35S] binding, membranes of transfected CHO or RH7777 cells
T3 construct: expressed in transfected cells
Method: as §1, §2, §3

[5] = target: T4, human S1P receptors (S1P3) (Homo sapiens, UniProt Q99500); experiment: S1P receptor profiling, GTP[γ-35S] binding SPA, S1P3; type: biochemical; set-up: key to S1P3 mode of action (Agon = agonist): Agon = agonist; settings: for EC50: GTP[γ-35S] binding, membranes of transfected CHO or RH7777 cells
T4 construct: expressed in transfected cells
Method: as §1, §2, §3

[6] = target: T5, human S1P receptors (S1P4) (Homo sapiens, UniProt O95977); experiment: S1P receptor profiling, GTP[γ-35S] binding SPA, S1P4; type: biochemical; set-up: key to S1P4 mode of action (Agon = agonist): Agon = agonist; settings: for EC50: GTP[γ-35S] binding, membranes of transfected CHO or RH7777 cells; for S1P4 mode of action (Agon = agonist): column beside S1P4 EC50
T5 construct: expressed in transfected cells
T5 sequence (O95977 1-384): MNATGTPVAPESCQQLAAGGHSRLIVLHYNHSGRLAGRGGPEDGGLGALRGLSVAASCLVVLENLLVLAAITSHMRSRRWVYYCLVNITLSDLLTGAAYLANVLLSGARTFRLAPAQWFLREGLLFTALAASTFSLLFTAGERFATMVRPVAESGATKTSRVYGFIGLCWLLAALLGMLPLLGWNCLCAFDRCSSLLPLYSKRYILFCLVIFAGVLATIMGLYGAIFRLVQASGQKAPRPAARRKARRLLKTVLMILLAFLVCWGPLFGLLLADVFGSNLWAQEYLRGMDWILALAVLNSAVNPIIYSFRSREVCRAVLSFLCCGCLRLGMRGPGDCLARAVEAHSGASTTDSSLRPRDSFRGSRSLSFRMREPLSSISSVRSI
Method: as §1, §2, §3

T2 sequence (Q9H228 whole entry): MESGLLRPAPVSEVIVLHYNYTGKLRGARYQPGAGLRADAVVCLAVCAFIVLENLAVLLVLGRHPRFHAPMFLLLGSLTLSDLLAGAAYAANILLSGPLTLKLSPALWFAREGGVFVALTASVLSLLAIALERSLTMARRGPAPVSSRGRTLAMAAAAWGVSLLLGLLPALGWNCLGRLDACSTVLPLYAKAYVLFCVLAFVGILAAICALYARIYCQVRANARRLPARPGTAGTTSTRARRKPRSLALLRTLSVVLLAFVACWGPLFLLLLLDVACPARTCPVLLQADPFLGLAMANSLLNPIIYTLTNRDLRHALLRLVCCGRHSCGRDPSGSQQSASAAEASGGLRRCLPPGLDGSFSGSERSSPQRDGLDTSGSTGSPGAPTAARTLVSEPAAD
T3 sequence (P21453 whole entry): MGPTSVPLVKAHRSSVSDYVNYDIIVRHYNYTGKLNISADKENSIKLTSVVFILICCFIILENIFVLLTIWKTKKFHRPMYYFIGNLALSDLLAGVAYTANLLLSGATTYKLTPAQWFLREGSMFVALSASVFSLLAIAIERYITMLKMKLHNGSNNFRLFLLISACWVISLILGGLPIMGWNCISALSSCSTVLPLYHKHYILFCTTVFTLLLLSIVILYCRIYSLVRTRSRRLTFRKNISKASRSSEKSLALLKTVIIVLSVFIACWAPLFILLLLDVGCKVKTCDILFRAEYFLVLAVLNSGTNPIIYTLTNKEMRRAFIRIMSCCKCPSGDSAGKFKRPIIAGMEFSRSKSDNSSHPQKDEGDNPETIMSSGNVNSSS
T1 sequence (O95136 whole entry): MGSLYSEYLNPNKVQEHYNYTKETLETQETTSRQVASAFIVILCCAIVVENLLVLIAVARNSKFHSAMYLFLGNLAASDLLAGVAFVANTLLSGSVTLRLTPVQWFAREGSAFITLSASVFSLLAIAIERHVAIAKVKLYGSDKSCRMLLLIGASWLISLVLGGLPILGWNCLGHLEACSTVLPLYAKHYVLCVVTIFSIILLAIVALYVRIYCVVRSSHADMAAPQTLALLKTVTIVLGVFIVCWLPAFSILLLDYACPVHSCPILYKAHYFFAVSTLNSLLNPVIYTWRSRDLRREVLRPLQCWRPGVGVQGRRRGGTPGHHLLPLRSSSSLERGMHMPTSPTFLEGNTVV
T4 sequence (Q99500 whole entry): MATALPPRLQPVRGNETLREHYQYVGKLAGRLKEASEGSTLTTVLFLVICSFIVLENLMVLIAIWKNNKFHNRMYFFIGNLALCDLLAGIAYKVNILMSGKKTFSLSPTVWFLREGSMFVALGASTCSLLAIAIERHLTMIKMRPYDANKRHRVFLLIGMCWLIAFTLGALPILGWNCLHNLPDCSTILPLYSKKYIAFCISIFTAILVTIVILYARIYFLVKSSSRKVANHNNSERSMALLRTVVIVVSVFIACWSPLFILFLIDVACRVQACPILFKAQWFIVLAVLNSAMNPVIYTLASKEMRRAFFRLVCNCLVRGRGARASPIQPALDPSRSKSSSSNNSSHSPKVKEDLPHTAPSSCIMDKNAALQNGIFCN

Row | melting point | EC50 [2] | EC50 [3] | S1P5 mode of action (Agon = agonist) [3] | S1P1 mode of action (Agon = agonist) [4] | EC50 [4] | EC50 [5] | EC50 [6] | S1P4 mode of action (Agon = agonist) [6] | S1P3 mode of action (Agon = agonist) ([5]; column beside S1P3 EC50) | SMILES | dose giving depletion of peripheral blood lymphocytes by more than 50% ([1]; after 6 h) | dose giving depletion of peripheral blood lymphocytes by more than 50% ([1]; after 24 h)
1 | – | > 10 µM | 0.0217 µM | Agon | Agon | 0.0041 µM | > 10 µM | 0.0018 µM | Agon | – | CC(N)(CCc1ccc(OCCc2ccc3ccccc3c2)cc1)COP(=O)(O)O (stereo not drawn) [Example 42] | – | –
2 | – | > 10 µM | 0.0015 µM | Agon | Agon | 0.0003 µM | 0.196 µM | > 10 µM | – | Agon | C[C@@](N)(CCc1ccc(C(=O)CCc2ccc(-c3ccccc3)cc2)cc1)COP(=O)(O)O [Example 50] | – | –
3 | – | > 10 µM | 0.0049 µM | Agon | Agon | 0.0122 µM | > 10 µM | – | – | – | COc1ccc(CCOc2ccc(CCC(N)(CO)COP(=O)(O)O)cc2)cc1F (stereo not drawn) [Example 94] | – | –

Continued, compound first:

Row | SMILES | melting point | EC50 [2] | EC50 [3] | S1P5 mode of action (Agon = agonist) [3] | S1P1 mode of action (Agon = agonist) [4] | EC50 [4] | EC50 [5] | EC50 [6] | S1P4 mode of action (Agon = agonist) [6] | S1P3 mode of action (Agon = agonist) ([5]; column beside S1P3 EC50) | dose giving depletion of peripheral blood lymphocytes by more than 50% ([1]; after 6 h) | dose giving depletion of peripheral blood lymphocytes by more than 50% ([1]; after 24 h)
4 | C[C@](N)(CO)CCc1ccc(OCCCC(F)(F)C(F)(F)F)cc1 (as salt: hydrochloride) [Example 1, (R)-2-Amino-2-methyl-4-[4-(4,4,5,5,5-pentafluoro-pentyloxy)-phenyl]-butan-1-ol Hydrochloride] | 186 to 189 °C | – | – | – | – | – | – | – | – | – | – | –
5 | C[C@](N)(CO)CCc1ccc(OCCCC(F)(F)C(F)(F)F)cc1 [Example 1, (R)-2-Amino-2-methyl-4-[4-(4,4,5,5,5-pentafluoro-pentyloxy)-phenyl]-butan-1-ol Hydrochloride] | – | – | – | – | – | – | – | – | – | – | 0.2 mg/kg | 0.1 mg/kg
6 | C[C@@](N)(CCc1ccc(OCCCCCF)cc1)COP(=O)(O)O [Example 35, Mono-(R)-2-Amino-2-methyl-4-[4-(5-fluoro-pentyloxy)-phenyl]-but-2-yl phosphate] | 237 to 241 °C | – | – | – | – | – | – | – | – | – | – | –
7 | C[C@](N)(CO)CCc1ccc(OCCCCCF)cc1 (as salt: hydrochloride) [Example 2, (R)-2-Amino-2-methyl-4-[4-(5-fluoro-pentyloxy)-phenyl]-butan-1-ol Hydrochloride] | 143 to 146 °C | – | – | – | – | – | – | – | – | – | – | –
8 | C[C@@](N)(CCc1ccc(OCCCC(F)(F)C(F)(F)F)cc1)COP(=O)(O)O [Example 34, Mono-(R)-2-Amino-2-methyl-4-[4-(4,4,5,5,5-pentafluoro-pentyloxy)-phenyl]-but-2-yl phosphate] | 229 to 231 °C | > 10 µM | 0.0009 µM | Agon | Agon | 0.0161 µM | > 10 µM | 0.0153 µM | Agon | – | – | –
